Earlier results as cited in patent US20170058282A1 (priority 2015, published 2017).

Tested on: heme sensor system HssRS (histidine kinase HssS / response regulator HssR)
Details: natural HssRS; cited from earlier work

**Q.** Which “responsive concentrations of heme” value does the source give for `C=CC1=C(C)c2cc3[nH]c(cc4nc(cc5[nH]c(cc1n2)c(C)c5CCC(=O)O)C(CCC(=O)O)=C4C)c(C)c3C=C.[Fe+2]` [heme] here?
**A.** Its value is “sub-μM”.
